Tests used:
Dictyostelium discoideum = assay: Ability to inhibit growth of Dictostelium discoideum.; type: functional, organism-based
Rattus norvegicus = species on record: Rattus norvegicus; assay: Bone resorption activity in rats.; type: functional

Cc1cccnc1NCC(P(=O)(O)O)P(=O)(O)O was tested, and the IC50 (Dictyostelium discoideum) was 40 µM and the LED (Rattus norvegicus) was 1 mgP kg-1.
O=P(O)(O)C(O)(Cc1cccnc1)P(=O)(O)O [RISEDRONIC ACID] gave an IC50 (Dictyostelium discoideum) of 13 µM and an LED (Rattus norvegicus) of 0.0003 mgP kg-1.
For O=P(O)(O)C1(P(=O)(O)O)CC2CCCNC2C1 (stereo unspecified), the IC50 (Dictyostelium discoideum) was 13 µM and the LED (Rattus norvegicus) was 0.01 mgP kg-1.
Cc1ccc(NC(P(=O)(O)O)P(=O)(O)O)nc1 was tested, and the LED (Rattus norvegicus) was 0.001 mgP kg-1.
With C[n+]1cccc(CC(O)(P(=O)(O)O)P(=O)(O)O)c1 the LED (Rattus norvegicus) was 0.0001 mgP kg-1.
O=P(O)(O)C(O)(Cc1ccncc1)P(=O)(O)O gave an LED (Rattus norvegicus) of 0.01 mgP kg-1.
In the case of NCCC(O)(P(=O)(O)O)P(=O)(O)O [PAMIDRONIC ACID], the IC50 (Dictyostelium discoideum) is reported as 167 µM and the LED (Rattus norvegicus) is reported as 0.03 mgP kg-1.
Molecule CCCCCN(C)CCC(O)(P(=O)(O)O)P(=O)(O)O [IBANDRONIC ACID] has an LED (Rattus norvegicus) of 0.0001 mgP kg-1.
For Cc1cccnc1NC(P(=O)(O)O)P(=O)(O)O, the IC50 (Dictyostelium discoideum) was 9 µM and the LED (Rattus norvegicus) was 0.001 mgP kg-1.
Molecule CC(O)(P(=O)(O)O)P(=O)(O)O [ETIDRONIC ACID] has an IC50 (Dictyostelium discoideum) of 380 µM and an LED (Rattus norvegicus) of 1 mgP kg-1.
With O=P(O)(O)C(CCc1ccccn1)P(=O)(O)O the IC50 (Dictyostelium discoideum) was 150 µM.
CCCCCCC[n+]1ccc(CC(O)(P(=O)(O)O)P(=O)(O)O)cc1 was tested, and the LED (Rattus norvegicus) was 0.01 mgP kg-1.
For O=P(O)(O)C(Cc1cccnc1)P(=O)(O)O, the LED (Rattus norvegicus) was 0.01 mgP kg-1.
O=P(O)(O)C(NC1CCCCCC1)P(=O)(O)O [INCADRONIC ACID] was tested, and the LED (Rattus norvegicus) was 0.001 mgP kg-1.
O=P(O)(O)C(O)(CCc1ccncc1)P(=O)(O)O showed an LED (Rattus norvegicus) of 1 mgP kg-1.
For CCN(c1ccncc1)C(P(=O)(O)O)P(=O)(O)O, the LED (Rattus norvegicus) was 0.1 mgP kg-1.
With Cc1ccnc(NC(P(=O)(O)O)P(=O)(O)O)c1 the LED (Rattus norvegicus) was 0.001 mgP kg-1.
In the case of Cc1cccnc1NC(P(C)(=O)O)P(=O)(O)O (stereo unspecified), the LED (Rattus norvegicus) is reported as 1 mgP kg-1.
Molecule O=P(O)(O)C1(P(=O)(O)O)Cc2cccnc2C1 has an IC50 (Dictyostelium discoideum) of 1200 µM.
In the case of Cc1cccc(NC(P(=O)(O)O)P(=O)(O)O)n1, the LED (Rattus norvegicus) is reported as 0.001 mgP kg-1.
O=P(O)(O)C(O)(Cc1cnc2ccccn12)P(=O)(O)O [MINODRONIC ACID] was tested, and the LED (Rattus norvegicus) was 0.0001 mgP kg-1.
Molecule C[n+]1ccc(CC(O)(P(=O)(O)O)P(=O)(O)O)cc1 has an LED (Rattus norvegicus) of 0.01 mgP kg-1.
In the case of NCCCC(O)(P(=O)(O)O)P(=O)(O)O [ALENDRONIC ACID], the IC50 (Dictyostelium discoideum) is reported as 32 µM and the LED (Rattus norvegicus) is reported as 0.001 mgP kg-1.
O=P(O)(O)C(O)(Cc1ccccn1)P(=O)(O)O gave an LED (Rattus norvegicus) of 0.001 mgP kg-1.
Molecule CCCCP(=O)(O)C(Nc1ncccc1C)P(=O)(O)O (stereo unspecified) has an LED (Rattus norvegicus) of 1 mgP kg-1.
Molecule Cc1ccc(NC(P(C)(=O)O)P(=O)(O)O)nc1 (stereo unspecified) has an LED (Rattus norvegicus) of 1 mgP kg-1.
For C[n+]1ccccc1CC(O)(P(=O)(O)O)P(=O)(O)O, the LED (Rattus norvegicus) was 0.01 mgP kg-1.
For O=P(O)(O)C(Nc1ncccn1)P(=O)(O)O, the LED (Rattus norvegicus) was 0.001 mgP kg-1.
Molecule C[n+]1cccc2c1CC(P(=O)(O)O)(P(=O)(O)O)C2 has an LED (Rattus norvegicus) of 0.1 mgP kg-1.
O=P(O)(O)C(C1CCc2cccnc21)P(=O)(O)O (stereo unspecified) showed an IC50 (Dictyostelium discoideum) of 38 µM and an LED (Rattus norvegicus) of 0.1 mgP kg-1.
Work on O=P(O)(O)C(O)(C1CCc2ccncc21)P(=O)(O)O (stereo unspecified) yielded an IC50 (Dictyostelium discoideum) of 36 µM and an LED (Rattus norvegicus) of 0.01 mgP kg-1.
Molecule O=P(O)(O)C(O)(CCc1cccnc1)P(=O)(O)O has an IC50 (Dictyostelium discoideum) of 310 µM and an LED (Rattus norvegicus) of 1 mgP kg-1.
O=P(O)(O)C(Cc1ccccn1)P(=O)(O)O [PIRIDRONIC ACID] was tested, and the IC50 (Dictyostelium discoideum) was 20 µM and the LED (Rattus norvegicus) was 0.01 mgP kg-1.
For O.O=P(O)(O)C(O)(Cn1ccnc1)P(=O)(O)O [ZOLEDRONIC ACID], the LED (Rattus norvegicus) was 0.0001 mgP kg-1.
Molecule NCCCC(P(=O)(O)O)P(=O)(O)O has an IC50 (Dictyostelium discoideum) of 44 µM.
Work on O=P(O)(O)C(CNc1ccccn1)P(=O)(O)O yielded an IC50 (Dictyostelium discoideum) of 15 µM and an LED (Rattus norvegicus) of 0.01 mgP kg-1.
For O=P(O)(O)C(Nc1ccc(Cl)cn1)P(=O)(O)O, the LED (Rattus norvegicus) was 0.01 mgP kg-1.
For O=P(O)(O)C(Nc1ccccn1)P(=O)(O)O, the IC50 (Dictyostelium discoideum) was 12 µM and the LED (Rattus norvegicus) was 0.01 mgP kg-1.

Source: ChEMBL document CHEMBL1135492, “An investigation of bone resorption and Dictyostelium discoideum growth inhibition by bisphosphonate drugs” (J Med Chem, 2002)
